Where two headings read alike, the source gives them in different places.
Experiments:
[1] = target: T1, human BACE2 (1-460):Fc (Homo sapiens, UniProt Q9Y5Z0); experiment: BACE2 TMEM27 FRET Assay; assay type: biochemical
T1 construct: made in house; host or cells: HEK293 (transient transfection, purified from conditioned media by Protein A)
T1 sequence (Q9Y5Z0 21-460): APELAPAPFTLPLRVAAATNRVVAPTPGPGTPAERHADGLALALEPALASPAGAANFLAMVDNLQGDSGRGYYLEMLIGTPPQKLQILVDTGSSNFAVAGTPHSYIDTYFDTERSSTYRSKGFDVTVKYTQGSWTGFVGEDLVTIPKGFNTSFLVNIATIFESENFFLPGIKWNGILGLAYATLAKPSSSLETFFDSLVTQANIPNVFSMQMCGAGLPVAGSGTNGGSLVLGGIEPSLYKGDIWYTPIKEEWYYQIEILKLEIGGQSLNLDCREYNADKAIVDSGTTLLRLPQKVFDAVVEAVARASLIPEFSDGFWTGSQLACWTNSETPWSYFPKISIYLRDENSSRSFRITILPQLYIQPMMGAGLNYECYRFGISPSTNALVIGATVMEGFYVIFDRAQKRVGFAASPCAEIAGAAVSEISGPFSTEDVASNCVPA
Description: (§1) To assess selectivity of BACE1 over BACE2, the test compound is evaluated in FRET-based enzymatic assays using specific substrates for BACE1 and BACE2 as described below. For in vitro enzymatic and cellular assays, the test compound is prepared in DMSO to make up a 10 mM stock solution. The stock solution is serially diluted in DMSO to obtain a ten-point dilution curve with final compound concentrations ranging from 10 μM to 0.05 nM in a 96-well round-bottom plate before conducting the in vitro enzymatic and whole cell assays.
Human BACE1 (accession number: AF190725) and human BACE2 (accession number: AF 204944) are cloned from total brain cDNA by RT-PCR. […]
(§2) Conditioned media of HEK293 cell transiently transfected with huBACE1:Fc or huBACE2:Fc cDNA are collected. […] The purity of final product is assessed by electrophoresis in 4-20% Tris-Glycine SDS-PAGE. […]
Transmembrane protein 27 (TMEM27) (Accession Number NM_020665), also known as Collectrin) is a recently described substrate for BACE2, but not BACE1 (Esterhazy, et al, Cell Metabolism, 14, 365-377 (2011)). […] The RFU of the mixture at time 0 is recorded at excitation wavelength 430 nm and emission wavelength 535 nm. […] The RFU at the end of incubation is recorded with the same excitation and emission settings used at time 0. […]

[2] = target: T2, human BACE1(1-460):Fc (Homo sapiens, UniProt P56817); experiment: BACE1 FRET Assay; assay type: biochemical; conditions: purified recombinant huBACE1:Fc, FRET substrate based on APP; Mean±SEM 0.48, n=4
T2 construct: made in house; host or cells: HEK293 (transient transfection, purified from conditioned media by Protein A)
T2 sequence (P56817 22-460): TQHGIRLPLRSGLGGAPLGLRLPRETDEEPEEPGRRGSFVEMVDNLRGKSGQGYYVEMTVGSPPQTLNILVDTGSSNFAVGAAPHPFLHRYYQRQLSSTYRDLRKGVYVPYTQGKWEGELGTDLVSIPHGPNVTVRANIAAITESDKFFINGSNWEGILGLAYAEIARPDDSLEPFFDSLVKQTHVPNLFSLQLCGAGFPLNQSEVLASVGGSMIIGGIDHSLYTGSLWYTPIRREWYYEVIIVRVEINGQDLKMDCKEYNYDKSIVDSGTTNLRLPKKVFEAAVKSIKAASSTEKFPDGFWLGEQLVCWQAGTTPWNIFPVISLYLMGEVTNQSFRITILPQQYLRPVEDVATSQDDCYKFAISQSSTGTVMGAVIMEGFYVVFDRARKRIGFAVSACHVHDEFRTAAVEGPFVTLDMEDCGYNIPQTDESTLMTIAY
Description: as §1
Human BACE1 (accession number: AF190725) and human BACE2 (accession number: AF 204944) are cloned from total brain cDNA by RT-PCR. The nucleotide sequences corresponding to amino acid sequences #1 to 460 are inserted into the cDNA encoding human IgG1 (Fc) polypeptide (Vassar et al., Science, 286, 735-742 (1999)). […]
as §2
Serial dilutions of the test compound are prepared as described above. […] The RFU of the mixture at time 0 is recorded at excitation wavelength 355 nm and emission wavelength 460 nm, after brief mixing on a plate shaker. […] The RFU at the end of incubation is recorded with the same excitation and emission settings used at time 0. […]

[3] = target: T3, BACE1 (Homo sapiens, UniProt P56817); experiment: SH-SY5YAPP695Wt Whole Cell Assay (Abeta ELISA); assay type: cell-based; conditions: 24 hours incubation, conditioned media, Mean ± SEM, n = 4
T3 construct: endogenous in cells; host or cells: SH-SY5Y (ATCC CRL2266) stably expressing human APP695Wt
T3 sequence (P56817 46-501): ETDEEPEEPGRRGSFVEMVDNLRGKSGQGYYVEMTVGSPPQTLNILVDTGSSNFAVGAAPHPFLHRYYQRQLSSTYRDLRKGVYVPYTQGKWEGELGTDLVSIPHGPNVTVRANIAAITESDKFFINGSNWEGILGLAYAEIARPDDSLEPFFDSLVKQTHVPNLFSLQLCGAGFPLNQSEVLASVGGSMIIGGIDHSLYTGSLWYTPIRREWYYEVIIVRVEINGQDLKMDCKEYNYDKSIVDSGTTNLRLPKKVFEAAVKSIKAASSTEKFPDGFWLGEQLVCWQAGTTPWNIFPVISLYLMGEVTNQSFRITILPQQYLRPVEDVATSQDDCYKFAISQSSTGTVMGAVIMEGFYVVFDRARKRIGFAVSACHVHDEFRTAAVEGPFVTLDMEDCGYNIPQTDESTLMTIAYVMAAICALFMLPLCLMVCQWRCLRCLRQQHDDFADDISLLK
Description: as §1
The routine whole cell assay for the measurement of inhibition of BACE1 activity utilizes the human neuroblastoma cell line SH-SY5Y (ATCC Accession No. CRL2266) stably expressing a human APP695Wt cDNA. Cells are routinely used up to passage number 6 and then discarded.
SH-SY5YAPP695Wt cells are plated in 96 well tissue culture plates at 5.0×10^4 cells/well in 200 μL culture media (50% MEM/EBSS and Ham's F12, lx each sodium pyruvate, non-essential amino acids and Na bicarbonate containing 10% FBS). The following day, media is removed from the cells, fresh media added then incubated at 37° C. for 24 hours in the presence/absence of test compound at the desired concentration range.
At the end of the incubation, conditioned media are analyzed for evidence of beta-secretase activity by analysis of Abeta peptides 1-40 and 1-42 by specific sandwich ELISAs. […]

- IC50 ([1]; huBACE2:Fc, TMEM27 FRET substrate, Mean±SEM 202, n=4): 479 nM
- BACE2 IC50 / BACE1 IC50 ratio (selectivity for BACE1) ([1]; selectivity for BACE1 over BACE2): about 400 fold
- IC50 [2]: 1.19 nM
- IC50 ([3]; read-out: SH-SY5YAPP695Wt A-beta (1-40) ELISA IC50): 0.385 ± 0.163 nM
- IC50 ([3]; read-out: SH-SY5YAPP695Wt A-beta (1-42) ELISA IC50): 0.381 ± 0.266 nM
Compound: CC(F)(F)[C@H]1OC[C@]2(c3cc(NC(=O)c4cnc(-n5cncn5)cn4)ccc3F)N=C(N)SC[C@H]12 [Example 1, N-[3-[(4aS,5S,7aS)-2-Amino-5-(1,1-difluoroethyl)-4,4a,5,7-tetrahydrofuro[3,4-d][1,3]thiazin-7a-yl]-4-fluoro-phenyl]-5-(1,2,4-triazol-1-yl)pyrazine-2-carboxamide]
